Results published in publication PMC8969509 (Journal of Antimicrobial Chemotherapy, 2022).

Molecular target: T1, Mtb topoisomerase I (Mycobacterium tuberculosis, UniProt P9WG49)
T1 construct: gene topA
Assay: biochemical

T1 sequence (P9WG49 whole entry): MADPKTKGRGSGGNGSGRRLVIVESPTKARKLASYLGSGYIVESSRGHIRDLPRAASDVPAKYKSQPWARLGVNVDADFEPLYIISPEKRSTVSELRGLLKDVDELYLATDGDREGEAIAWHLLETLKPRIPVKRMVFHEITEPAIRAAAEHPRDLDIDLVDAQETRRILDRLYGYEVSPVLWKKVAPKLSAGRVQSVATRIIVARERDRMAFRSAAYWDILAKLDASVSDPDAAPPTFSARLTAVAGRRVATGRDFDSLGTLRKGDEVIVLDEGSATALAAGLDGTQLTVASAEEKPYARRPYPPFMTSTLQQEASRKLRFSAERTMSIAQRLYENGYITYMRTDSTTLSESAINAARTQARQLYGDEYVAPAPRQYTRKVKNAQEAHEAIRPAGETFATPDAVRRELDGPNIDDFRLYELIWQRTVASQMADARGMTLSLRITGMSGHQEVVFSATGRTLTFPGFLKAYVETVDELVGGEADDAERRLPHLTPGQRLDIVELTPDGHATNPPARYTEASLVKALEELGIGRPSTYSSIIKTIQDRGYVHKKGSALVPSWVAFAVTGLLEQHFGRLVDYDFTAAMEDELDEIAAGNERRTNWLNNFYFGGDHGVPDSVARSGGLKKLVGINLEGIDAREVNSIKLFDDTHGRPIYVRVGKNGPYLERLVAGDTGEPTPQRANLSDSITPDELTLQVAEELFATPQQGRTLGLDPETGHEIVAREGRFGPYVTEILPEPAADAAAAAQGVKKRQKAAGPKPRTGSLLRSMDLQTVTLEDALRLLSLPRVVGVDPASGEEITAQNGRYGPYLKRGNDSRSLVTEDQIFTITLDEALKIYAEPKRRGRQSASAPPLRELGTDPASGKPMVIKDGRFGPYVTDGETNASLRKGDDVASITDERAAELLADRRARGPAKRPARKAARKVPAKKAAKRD

Compound `COc1cc(NS(C)(=O)=O)ccc1Nc1c2ccccc2nc2ccccc12` [mAMSA] has an IC50 of 17.4 µM.
